Measured values taken from ChEMBL document CHEMBL1201862, “PubChem BioAssay data set” (2004).
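Exposure lasted 48 hours, with cells grown in 96-well plates and compounds tested at five concentrations. Here, GI50 denotes the concentration required for 50% inhibition of growth.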 Activity calls are given as the source filed them. Rule as the data show it: active = GI50 up to about 1.1 µM and inactive = higher.

Assays:
Assay in all cases: DTP human tumour cell line panel, 48 h
SF-295 = tested on: SF-295
HCC 2998 = tested on: HCC 2998
T47D = tested on: T47D
UACC-257 = tested on: UACC-257
MDA-N = tested on: MDA-N
K562 = tested on: K562
DU-145 = tested on: DU-145
U-251 = tested on: U-251
SNB-19 = tested on: SNB-19
PC-3 = tested on: PC-3
UACC-62 = tested on: UACC-62
SF-539 = tested on: SF-539
HOP-62 = tested on: HOP-62
CCRF-CEM = tested on: CCRF-CEM
COLO 205 = tested on: COLO 205
SF-268 = tested on: SF-268
UO-31 = tested on: UO-31
HOP-92 = tested on: HOP-92
M14 = tested on: M14
HL-60 = tested on: HL-60

Measured: GI50

CCOC(=O)/C=C(\C(=O)OCC)n1cc(C)c(=O)n(Cc2cn(COCCOC(C)=O)nn2)c1=O
inactive: SF-295 19.5 µM | HCC 2998 22.9 µM | T47D 21.3 µM | UACC-257 17.4 µM | MDA-N 20.2 µM | K562 5.69 µM | DU-145 34.9 µM | U-251 16.8 µM | SNB-19 19 µM | PC-3 20 µM | UACC-62 17.8 µM | SF-539 3.61 µM | HOP-62 20.3 µM | CCRF-CEM 1.85 µM | COLO 205 2.86 µM | SF-268 14.7 µM | UO-31 14 µM | HOP-92 1.61 µM

CC1CNC(c2ccc3c(c2)Cc2cc(C4=NC(C)CN4)ccc2-3)=N1 (stereo unspecified)
inactive: SF-295 71.9 µM | HCC 2998 18.2 µM | T47D 35.6 µM | M14 40.2 µM | UACC-257 32.6 µM | MDA-N 34.8 µM | K562 34.4 µM | DU-145 65.8 µM | U-251 19.4 µM | SNB-19 36.6 µM | PC-3 43.8 µM | UACC-62 28.6 µM | HOP-62 41 µM | CCRF-CEM > 100 µM | COLO 205 54 µM | SF-268 26.1 µM | UO-31 > 100 µM | HOP-92 > 100 µM

OCC1OC(N2CCN(C3OC(CO)C(O)C(O)C3O)CC2)C(O)C(O)C1O (stereo unspecified)
inactive: SF-295 > 100 µM | HCC 2998 > 100 µM | T47D > 100 µM | M14 > 100 µM | UACC-257 > 100 µM | MDA-N > 100 µM | K562 > 100 µM | DU-145 > 100 µM | U-251 > 100 µM | SNB-19 > 100 µM | PC-3 > 100 µM | UACC-62 > 100 µM | SF-539 > 100 µM | HOP-62 > 100 µM | COLO 205 > 100 µM | SF-268 > 100 µM | UO-31 > 100 µM | HOP-92 > 100 µM

C(=N\c1ccc(-c2nc3ccccc3o2)cc1)/c1ccco1
inactive: T47D 38.6 µM | M14 79.6 µM | UACC-257 48.3 µM | MDA-N 64 µM | DU-145 75 µM | SNB-19 > 100 µM | PC-3 55.7 µM | SF-539 > 100 µM | COLO 205 37.7 µM | UO-31 41.4 µM | HOP-92 30.8 µM

CN(C)c1nc(Cl)c2c(-c3ccccc3)c(-c3ccccc3)oc2n1
inactive: SF-295 58.1 µM | HCC 2998 64.6 µM | T47D 83 µM | M14 > 100 µM | UACC-257 > 100 µM | HL-60 12.2 µM | K562 42.1 µM | DU-145 52.4 µM | U-251 > 100 µM | SNB-19 > 100 µM | UACC-62 95.5 µM | SF-539 48 µM | CCRF-CEM 28.1 µM | COLO 205 > 100 µM | SF-268 36 µM | UO-31 > 100 µM | HOP-92 81.5 µM

Oc1ccccc1/C=N/c1ccc(Oc2ccc(Cl)cc2)c(Cl)c1
inactive: SF-295 18.7 µM | HCC 2998 18.5 µM | T47D 5.97 µM | M14 18.5 µM | UACC-257 28.6 µM | HL-60 17.9 µM | DU-145 81.8 µM | U-251 21.2 µM | SNB-19 17.4 µM | PC-3 20.9 µM | UACC-62 24.9 µM | SF-539 20.9 µM | HOP-62 15.5 µM | CCRF-CEM 12.4 µM | COLO 205 21.8 µM | SF-268 17.9 µM | UO-31 11.1 µM | HOP-92 20 µM

Nc1cccc(S(=O)(=O)Nc2nnc(S(N)(=O)=O)s2)c1
inactive: SF-295 > 100 µM | HCC 2998 > 100 µM | T47D > 100 µM | M14 > 100 µM | HL-60 > 100 µM | K562 > 100 µM | DU-145 > 100 µM | U-251 > 100 µM | SNB-19 > 100 µM | PC-3 > 100 µM | UACC-62 > 100 µM | SF-539 > 100 µM | HOP-62 > 100 µM | COLO 205 > 100 µM | SF-268 > 100 µM | UO-31 > 100 µM | HOP-92 > 100 µM

O=C1CC(c2cccc(Cl)c2)Oc2ccccc21 (stereo unspecified)
inactive: SF-295 19.4 µM | HCC 2998 15.4 µM | T47D 12.7 µM | M14 18.1 µM | UACC-257 16.9 µM | HL-60 11.1 µM | K562 2.9 µM | DU-145 17.7 µM | U-251 25.5 µM | SNB-19 15.3 µM | PC-3 15.7 µM | UACC-62 14.9 µM | SF-539 18.2 µM | HOP-62 17.1 µM | CCRF-CEM 10.1 µM | COLO 205 23.7 µM | SF-268 22.3 µM | UO-31 13.8 µM | HOP-92 15.2 µM
